According to the NIST ThermoML archive (doi:10.1021/je501161t):
± gives the expanded uncertainty stated by the source.

Test: mn = molality of the nth substance listed, in mol/kg
Settings: 100 kPa, Liquid, Vibrating tube method

COS(=O)(=O)[O-].Cn1cc[n+](C)c1 [1,3-dimethylimidazolium methylsulfate] + O
mass density [kg/m3]
Settings	m1 = 0.0333	m1 = 0.052	m1 = 0.0743	m1 = 0.0945	m1 = 0.1147	m1 = 0.1309	m1 = 0.1517	m1 = 0.1791
288.15 K	1000.78 ± 2	1001.71 ± 2	1002.81 ± 2	1003.79 ± 2	1004.77 ± 2	1005.55 ± 2	1006.54 ± 2	1007.82 ± 2
298.15 K	998.673 ± 2	999.578 ± 2	1000.65 ± 2	1001.61 ± 2	1002.57 ± 2	1003.33 ± 2	1004.3 ± 2	1005.56 ± 2
308.15 K	995.619 ± 2	996.505 ± 2	997.553 ± 2	998.494 ± 2	999.435 ± 2	1000.18 ± 2	1001.14 ± 2	1002.38 ± 2
318.15 K	991.771 ± 2	992.648 ± 2	993.684 ± 2	994.617 ± 2	995.542 ± 2	996.28 ± 2	997.222 ± 2	998.46 ± 2

CCCCn1cc[n+](C)c1.[Br-] [1-butyl-3-methylimidazolium bromide] + O
mass density [kg/m3]
Settings	m1 = 0.0317	m1 = 0.0585	m1 = 0.073	m1 = 0.0916	m1 = 0.114	m1 = 0.1319	m1 = 0.1508	m1 = 0.1706	m1 = 0.191
288.15 K	1000.71 ± 2	1002.05 ± 2	1002.78 ± 2	1003.7 ± 2	1004.8 ± 2	1005.69 ± 2	1006.6 ± 2	1007.56 ± 2	1008.55 ± 2
298.15 K	998.612 ± 2	999.924 ± 2	1000.63 ± 2	1001.53 ± 2	1002.61 ± 2	1003.47 ± 2	1004.36 ± 2	1005.3 ± 2	1006.26 ± 2
308.15 K	995.556 ± 2	996.84 ± 2	997.535 ± 2	998.413 ± 2	999.47 ± 2	1000.32 ± 2	1001.19 ± 2	1002.12 ± 2	1003.07 ± 2
318.15 K	991.699 ± 2	992.959 ± 2	993.641 ± 2	994.509 ± 2	995.544 ± 2	996.382 ± 2	997.243 ± 2	998.148 ± 2	999.08 ± 2

CCCCn1cc[n+](C)c1.[Cl-] [1-butyl-3-methylimidazolium chloride] + O
mass density [kg/m3]
Settings	288.15 K	298.15 K	308.15 K	318.15 K
m1 = 0.0323	999.529 ± 2	997.423 ± 2	994.372 ± 2	990.507 ± 2
m1 = 0.0586	999.875 ± 2	997.736 ± 2	994.658 ± 2	990.768 ± 2
m1 = 0.0739	1000.08 ± 2	997.92 ± 2	994.834 ± 2	990.922 ± 2
m1 = 0.0899	1000.29 ± 2	998.113 ± 2	995.007 ± 2	991.091 ± 2
m1 = 0.1048	1000.49 ± 2	998.297 ± 2	995.182 ± 2	991.26 ± 2
m1 = 0.1254	1000.76 ± 2	998.55 ± 2	995.409 ± 2	991.473 ± 2
m1 = 0.1437	1001.01 ± 2	998.776 ± 2	995.622 ± 2	991.68 ± 2
m1 = 0.1687	1001.33 ± 2	999.091 ± 2	995.913 ± 2	991.942 ± 2
m1 = 0.1789	1001.47 ± 2	999.214 ± 2	996.039 ± 2	992.06 ± 2
m1 = 0.191	1001.63 ± 2	999.373 ± 2	996.185 ± 2	992.216 ± 2
m1 = 0.2204	1002.03 ± 2	999.752 ± 2	996.541 ± 2	992.538 ± 2

CCCCn1cc[n+](C)c1.F[B-](F)(F)F [1-butyl-3-methylimidazolium tetrafluoroborate] + O
mass density [kg/m3]
Settings	m1 = 0.0311	m1 = 0.0527	m1 = 0.072	m1 = 0.0904	m1 = 0.1103	m1 = 0.1326	m1 = 0.1525	m1 = 0.1788
288.15 K	1000.38 ± 2	1001.26 ± 2	1002.03 ± 2	1002.76 ± 2	1003.54 ± 2	1004.4 ± 2	1005.17 ± 2	1006.16 ± 2
298.15 K	998.274 ± 2	999.116 ± 2	999.86 ± 2	1000.56 ± 2	1001.31 ± 2	1002.13 ± 2	1002.86 ± 2	1003.82 ± 2
308.15 K	995.194 ± 2	995.999 ± 2	996.713 ± 2	997.385 ± 2	998.11 ± 2	998.921 ± 2	999.635 ± 2	1000.58 ± 2
318.15 K	991.332 ± 2	992.114 ± 2	992.809 ± 2	993.467 ± 2	994.171 ± 2	994.948 ± 2	995.643 ± 2	996.555 ± 2

CCOS(=O)(=O)[O-].CCn1cc[n+](C)c1 [1-ethyl-3-methylimidazolium ethyl sulfate] + O
mass density [kg/m3]
Settings	m1 = 0.0313	m1 = 0.0499	m1 = 0.0682	m1 = 0.0901	m1 = 0.1095	m1 = 0.1322
288.15 K	1000.55 ± 2	1001.4 ± 2	1002.22 ± 2	1003.21 ± 2	1004.08 ± 2	1005.09 ± 2
298.15 K	998.448 ± 2	999.27 ± 2	1000.07 ± 2	1001.04 ± 2	1001.87 ± 2	1002.86 ± 2
308.15 K	995.398 ± 2	996.212 ± 2	996.995 ± 2	997.93 ± 2	998.762 ± 2	999.712 ± 2
318.15 K	991.566 ± 2	992.377 ± 2	993.169 ± 2	994.105 ± 2	994.936 ± 2	995.897 ± 2

CCCCCCCCn1cc[n+](C)c1.[Br-] [1-methyl-3-octylimidazolium bromide] + O
mass density [kg/m3]
Settings	m1 = 0.0323	m1 = 0.0501	m1 = 0.0722	m1 = 0.0908	m1 = 0.1112	m1 = 0.1301	m1 = 0.1485	m1 = 0.1707	m1 = 0.191
288.15 K	1000.51 ± 2	1001.28 ± 2	1002.24 ± 2	1003.03 ± 2	1003.9 ± 2	1004.69 ± 2	1005.47 ± 2	1006.39 ± 2	1007.25 ± 2
298.15 K	998.383 ± 2	999.121 ± 2	1000.02 ± 2	1000.77 ± 2	1001.6 ± 2	1002.36 ± 2	1003.08 ± 2	1003.99 ± 2	1004.77 ± 2
308.15 K	995.284 ± 2	995.975 ± 2	996.827 ± 2	997.539 ± 2	998.314 ± 2	999.033 ± 2	999.725 ± 2	1000.54 ± 2	1001.3 ± 2
318.15 K	991.366 ± 2	992.011 ± 2	992.796 ± 2	993.46 ± 2	994.171 ± 2	994.852 ± 2	995.483 ± 2	996.26 ± 2	996.981 ± 2

CCCCCCn1cc[n+](C)c1.[Br-] [3-hexyl-1-methyl-1H-imidazolium bromide] + O
mass density [kg/m3]
Settings	m1 = 0.0314	m1 = 0.0515	m1 = 0.0703	m1 = 0.0881	m1 = 0.1098	m1 = 0.131	m1 = 0.1505	m1 = 0.1711	m1 = 0.1903
288.15 K	1000.58 ± 2	1001.52 ± 2	1002.4 ± 2	1003.23 ± 2	1004.23 ± 2	1005.18 ± 2	1006.08 ± 2	1007 ± 2	1007.87 ± 2
298.15 K	998.466 ± 2	999.368 ± 2	1000.21 ± 2	1001 ± 2	1001.96 ± 2	1002.88 ± 2	1003.74 ± 2	1004.64 ± 2	1005.47 ± 2
308.15 K	995.404 ± 2	996.284 ± 2	997.097 ± 2	997.858 ± 2	998.787 ± 2	999.688 ± 2	1000.5 ± 2	1001.4 ± 2	1002.2 ± 2
318.15 K	991.535 ± 2	992.389 ± 2	993.185 ± 2	993.932 ± 2	994.837 ± 2	995.704 ± 2	996.521 ± 2	997.358 ± 2	998.139 ± 2
